Data reported in patent publication US7608726B2, “Substituted indolepyridinium as anti-infective compounds” (Tibotec Pharmaceuticals Ltd., priority 2002, dated 2009).

Tested on: wild type HIV-LAI strain
Assay: Antiviral cellular assay (MT4 cells, MTT), wild type HIV-1 strain LAI
Assay type: cell-based
Settings: Human immunodeficiency virus 1, MT4; read-out: EC50, inhibition of wild-type HIV-LAI strain
Procedure: The compounds of the present invention were examined for anti-viral activity in a cellular assay. […] The cellular assay was performed according to the following procedure.
HIV- or mock-infected MT4 cells were incubated for five days in the presence of various concentrations of the inhibitor. At the end of the incubation period, the replicating virus in the control cultures has killed all HIV-infected cells in the absence of any inhibitor. Cell viability was determined by measuring the concentration of MTT, a yellow, water soluble tetrazolium dye that is converted to a purple, water insoluble formazan in the mitochondria of living cells only. Upon solubilization of the resulting formazan crystals with isopropanol, the absorbance of the solution was monitored at 540 nm. The values correlate directly to the number of living cells remaining in the culture at the completion of the five day incubation. The inhibitory activity of the compound was monitored on the virus-infected cells and was expressed as EC50 and EC90. These values represent the amount of the compound required to protect 50% and 90%, respectively, of the cells from the cytopathogenic effect of the virus. The toxicity of the compound was measured on the mock-infected cells and was expressed as CC50, which represents the concentration of compound required to inhibit the growth of the cells by 50%. The selectivity index (SI) (ratio CC50/EC50) is an indication of the selectivity of the anti-HIV activity of the inhibitor. Wherever results are reported as e.g. pEC50 or pCC50 values, the result is expressed as the negative logarithm of the result expressed as EC50 or CC50 respectively.
As a measure of the broad spectrum activity of the present compounds, the EC50 was determined. […] The fold resistance rounded to the nearest integer is mentioned between brackets.
Row WT: pEC50 against wild type HIV-LAI strain. The toxicity (Tox) is expressed as the pCC50 value as determined with mock transfected cells. ND means not determined.

## Cn1c2ccccc2c2c1cc(C(N)=O)c(=O)n2-c1ccc([N+](=O)[O-])cc1 [Compound 76]
  EC50: 1 to 32 µM
